Test results as given in ChEMBL document CHEMBL3272194, “Antiinflammatory activity of some 2,3-dihydrobenzofuran-5-acetic acids and related compounds” (J Med Chem, 1976).

Tests used:
Rattus norvegicus [1] = assay: Antiinflammatory activity in Wistar rat assessed as reduction in carrageenan-induced paw edema at 50 mg/kg, po treated 2 hrs before carrageenan challenge measured after 3 hrs; assay type: functional
Rattus norvegicus [2] = assay: Antiinflammatory activity in Wistar rat assessed as reduction in carrageenan-induced paw edema at 10 mg/kg, po treated 2 hrs before carrageenan challenge measured after 3 hrs; assay type: functional
Rattus norvegicus [3] = assay: Toxicity in po dosed Wistar rat assessed as gastric irritation at 10 to 50 mg/kg, po; assay type: organism-based, Stomach; design: dose 10-50 mg/kg, route oral; details: in vivo
Rattus norvegicus [4] = assay: Antiinflammatory activity in Wistar rat assessed as reduction in carrageenan-induced paw edema at 100 mg/kg, po treated 2 hrs before carrageenan challenge measured after 3 hrs; assay type: functional
Rattus norvegicus [5] = assay: Antiinflammatory activity in Wistar rat assessed as reduction in carrageenan-induced paw edema at 20 mg/kg, po treated 2 hrs before carrageenan challenge measured after 3 hrs; assay type: functional
Rattus norvegicus [6] = assay: Toxicity in po dosed Wistar rat assessed as gastric irritation at 20 to 100 mg/kg, po; assay type: organism-based, Stomach; design: dose 20-100 mg/kg, route oral; details: in vivo
Rattus norvegicus [7] = assay: Antiinflammatory activity in po dosed Wistar rat assessed as reduction in carrageenan-induced paw edema treated 2 hrs before carrageenan challenge measured after 3 hrs; assay type: functional
[8] = Toxicity in po dosed Wistar rat; assay type: organism-based; details: in vivo

SMILES	inhibition in vivo at 50 mg/kg (Rattus norvegicus [1]) [%]	inhibition in vivo at 10 mg/kg (Rattus norvegicus [2]) [%]	Activity (Rattus norvegicus [3])	inhibition in vivo at 100 mg/kg (Rattus norvegicus [4]) [%]	inhibition in vivo at 20 mg/kg (Rattus norvegicus [5]) [%]	Activity (Rattus norvegicus [6])	ED50 (Rattus norvegicus [7]) [mg/kg]	LD50 [8] [mg/kg]
CCCCC1C(=O)N(c2ccccc2)N(c2ccccc2)C1=O [PHENYLBUTAZONE]	51	24	Toxic	–	–	–	–	–
CC1Oc2c(Cl)cc(CC(=O)O)cc2C1C.NC1CCCCC1 (configuration not stated)	–	–	–	30	24	Toxic	–	–
CC1(C)Cc2cc(CC(N)=O)cc(Cl)c2O1	–	–	–	31	25	Toxic	–	–
CC1Cc2cc(CC(=O)O)cc(Cl)c2O1 (configuration not stated)	–	–	–	27	20	Toxic	–	–
CC1(C)Cc2cc(CC(=O)NO)ccc2O1	–	–	–	9	5	Toxic	–	–
CC1(C)Cc2cc(CC(=O)O)ccc2O1	–	–	–	32	25	Toxic	–	–
CC1Cc2cc(CC(N)=O)cc(Cl)c2O1 (configuration not stated)	–	–	–	17	2	Toxic	–	–
CC1(C)Cc2cc(CC(N)=O)ccc2O1	–	–	–	20	15	Toxic	–	–
CC1(C)Cc2cc(C(=O)/C=C/C(=O)O)cc(Cl)c2O1	–	–	–	3	9	Toxic	–	–
CC1(C)Cc2cc(CCCC(=O)O)cc(Cl)c2O1	–	–	–	32	32	Toxic	–	–
CC1Cc2cc(C(C)C(=O)O)cc(Cl)c2O1.NC1CCCCC1 (configuration not stated)	–	–	–	57	35	Toxic	–	–
CC1(C)Cc2cc(CC(=O)O)cc(Cl)c2O1	–	–	–	37	30	Toxic	–	–
CC(C(=O)O)c1cc(Cl)c2c(c1)CC(C)(C)O2 (configuration not stated)	–	–	–	58	45	Toxic	45	720
CC1(C)Cc2cc(C(=O)CCC(=O)O)cc(Cl)c2O1	–	–	–	37	24	Toxic	–	–
CC1(C)Cc2cc(CC(=O)NO)cc(Cl)c2O1	–	–	–	13	7	Toxic	–	–
